From PubChem BioAssay (NCI)
Values joined by “and” are separate entries in the source; they are usually repeats but may differ in a detail not shown here. Identical values can stand only once.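 Five compound concentrations were applied to cells in 96-well plates for 48 hours; endpoints were derived by simple linear interpolation of the resulting dose-response curve. Here, GI50 denotes the concentration required for 50% inhibition of growth. The concentration for full growth arrest is given as TGI.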

How the values were obtained:
Assay in all cases: NCI anticancer screen, dose series, 48 h
[1] = test system: 786-0 renal
[2] = test system: A549 NSCLC
[3] = test system: HCC-2998 colon
[4] = test system: HOP-92 NSCLC
[5] = test system: HT29 colon
[6] = test system: NCI-H522 lung
[7] = test system: OVCAR-5 ovarian
[8] = test system: SF-268 CNS
[9] = test system: SK-MEL-2 melanoma
[10] = test system: TK-10 renal

Row | Compound | GI50 [1] [µM] | TGI [1] | GI50 [2] [µM] | TGI [2] | GI50 [3] [µM] | TGI [3] [µM] | GI50 [4] [µM] | TGI [4] | GI50 [5] [µM] | TGI [5] | GI50 [6] [µM] | TGI [6] [µM] | GI50 [7] [µM] | TGI [7] | GI50 [8] [µM] | TGI [8] | GI50 [9] [µM] | TGI [9] [µM] | GI50 [10] [µM] | TGI [10]
1 | CC[C@H](C)[C@H](NC(=O)N[C@@H](C)c1ccccc1)C(=O)N(C)[C@H](C[C@@H](OC(C)=O)c1nc(C(=O)N[C@@H](Cc2ccccc2)C[C@H](C)C(=O)OC)cs1)C(C)C | 22.9 | 82.2 µM | 67.3 | > 100 µM | 28.8 | > 100 | 11.1 | 90.5 µM | 28.3 | > 100 µM | 13 | 42.1 | 27.9 | > 100 µM | 29.7 | > 100 µM | 18.3 | > 100 | 52 | > 100 µM
2 | CCn1c(-c2nonc2N)nc2c(C#CC(C)(C)O)ncc(OC[C@@H]3CCCN3)c21 | 2.45 | > 25 µM | 6.96 | > 25 µM | 3.12 | > 25 | 14.5 | > 25 µM | 5.15 | > 19.7 µM | 3.1 | 6.71 | 10.6 | > 25 µM | 7.84 | > 25 µM | 4.56 | 15 | 1.83 | > 21.8 µM
3 | NC1(C(=O)O)CSSC1 | 21.6 | > 100 µM | 3.37 | > 100 µM | 16.1 | 77.5 | 14.3 | 68.7 µM | 3.84 | 31.7 µM | 3.41 | 17.7 | 33.2 | 90.1 µM | 7.6 | > 100 µM | 2.66 | 7.95 | 3.42 | 24.3 µM
4 | CN1CCN(CCCOc2ccc3ncnc(Nc4ccc(Oc5cccc(F)c5)c(Cl)c4)c3c2)CC1 | 1.61 | 3 µM | 1.56 | 3.24 µM | 1.64 | 3.06 | 0.907 | 2.26 µM | 1.55 | 4.11 µM | 1.23 | 3.14 | 1.67 | 3.29 µM | 1.47 | 3.14 µM | 1.95 | 4.04 | 1.05 | 2.32 µM
5 | CC(=O)OC1Oc2cc(C)c(C)cc2-c2oc(=O)c(-c3ccccc3)cc21 (configuration not stated) | 0.429 | 24.8 µM | 0.608 | > 53.8 µM | 0.971 | > 30.8 | 1.98 | 61.8 µM | 0.323 | 4.39 µM | 0.177 | 4.81 | 5.18 | > 100 µM | 0.58 | > 50.6 µM | 0.572 | > 63.3 | 1.14 | > 44.9 µM
6 | CCOC(=O)/N=c1\ssc(Cl)c1Cl | 12.8 | > 100 µM | 24.1 | 73.8 µM | 2.83 | 5.39 | 5.66 | > 100 µM | 4.43 | > 100 µM | 3.87 | 95.9 | 4.86 | 28.1 µM | 17.4 | 41.6 µM | 12.1 | 60.4 | 4.72 | 18.5 µM
7 | Cc1ccc(N2C(=O)/C(=C3\Sc4c(nc(C)n(C)c4=O)N3c3ccccc3)SC2=S)cc1 | – | > 100 µM | – | > 100 µM | – | > 100 | – | > 100 µM | – | > 100 µM | – | > 100 | – | > 100 µM | – | > 100 µM | – | > 100 | – | > 100 µM
8 | NC(=O)c1c(NC(=O)c2cccc(C(F)(F)F)c2)sc2c1CCC(=O)C2 | 1.94 | > 100 µM | 1.88 | > 100 µM | 2.59 | > 76.9 | 0.985 | 3.47 µM | 0.378 | > 100 µM | 0.299 | 1.62 | 0.83 | 9.42 µM | 0.429 | > 100 µM | 2.06 | 6.25 | 0.753 | 13.3 µM
9 | Cc1ccc(NCCNCC(O)CO)c2c(=O)c3ccccc3sc12 (configuration not stated) | 1.37 | 2.79 µM | 0.849 | 2.38 µM | 1.48 | 3.05 | 1.98 | 7.81 µM | 1.41 | 3.04 µM | 1.91 | 4.09 | 1.74 | 3.67 µM | 1.81 | 3.96 µM | 1.77 | 3.49 | 1.51 | 3.1 µM
10 | O=C(Nc1cccc(Cl)c1)c1cc(Cl)ccc1O | 1.63 | 6.18 µM | 2.67 | > 79.3 µM | 2.94 | > 29.6 | 0.169 | 0.571 µM | 2.49 | 7.12 µM | 0.32 | 1.78 | 3.48 | > 100 µM | 1.21 | > 40.3 µM | 0.294 | 0.918 | 4.36 | 12.6 µM
11 | C=C1C(=O)C23CC1CCC2C12CO[C@@]3(O)[C@@H](O)C1C(C)(C)C=CC2=O (some centres not stated) | 1.75 | 1.24 µM and 3.59 µM | 16.3 | 7.63 µM and 34.3 µM | 20.7 | – | 2.92 | 1.46 µM and 5.41 µM | 2.12 | 0.756 µM and 5.49 µM | – | 4.09 | 25 | 9.96 µM and 40.5 µM | 3.11 | 6.77 µM and 11 µM | – | 1.99 | 4.51 | 1.55 µM and 11.2 µM
12 | CN1C=C(C(N)=O)C2CC(O)[C@@](NC(=O)CS(N)(=O)=O)(C(=O)O)C2C1 (some centres not stated) | – | 16.4 µM | – | > 36.2 µM | – | 34 | – | 5.05 µM | – | 10.6 µM | – | 23.9 | – | 6.8 µM | – | 10.3 µM | – | 8.22 | – | 28.5 µM
13 | N=C(N)SCC(=O)O | – | > 100 µM | – | > 100 µM | – | > 100 | – | > 100 µM | – | > 100 µM | – | > 100 | – | > 100 µM | – | > 100 µM | – | > 100 | – | > 100 µM
14 | CC(C)(C)OC(=O)n1c(Cl)c(C(=O)N=C=S)c2ccccc21 | 80 | > 100 µM | 50 | > 100 µM | 38.9 | > 100 | 17.2 | 65.4 µM | > 100 | > 100 µM | 18.1 | 37.6 | 23 | 94.3 µM | 37.5 | > 100 µM | 24.7 | 75.8 | 27.3 | > 100 µM
15 | Cc1ccc(S(=O)c2ccc([N+](=O)[O-])c3nonc23)cc1 (configuration not stated) | 13.2 | 26.2 µM | 18.7 | 39.5 µM | 15.6 | 29.4 | 4.09 | 17.2 µM | 4.08 | 22 µM | 1.57 | 2.98 | 9.5 | 26.2 µM | 15 | 29.9 µM | 17.8 | 35.8 | 2.53 | 5.51 µM
16 | Cc1cc(C(=O)Nc2cc(Nc3ncccc3-c3ncnc4nc[nH]c34)ccc2F)cc(C(C)(C)C#N)c1 | 13.9 | > 100 µM | 3.77 | > 100 µM | 0.415 | > 78.9 | 0.145 | 1.45 µM | 0.0739 | > 100 µM | 3.54 | > 100 | 0.211 | > 100 µM | 7.85 | > 100 µM | 0.0866 | 2.04 | 4.07 | > 100 µM
17 | COc1cc(/C=C2\C(=O)Nc3ccc(Br)cc32)cc(OC)c1OC | 27.2 | > 100 µM | 10.3 | > 100 µM | 57.4 | > 100 | 2.68 | 24.8 µM | 3.82 | > 100 µM | 3.29 | > 50.9 | 30.6 | > 100 µM | 36.9 | > 100 µM | 12.9 | 55.2 | 4.65 | 30.1 µM
18 | OCCN(CCO)c1ncnc2c1sc(=S)n2-c1ccccc1 | – | > 100 µM | – | > 100 µM | – | > 100 | – | > 100 µM | – | > 100 µM | – | > 100 | – | > 100 µM | – | > 100 µM | – | > 100 | – | > 100 µM
19 | N#CC1=C(N)Oc2c(sc3c(Br)cccc23)C1c1ccc(F)cc1 (configuration not stated) | 0.525 | 14.2 µM | 0.519 | 18 µM | 0.797 | 10.1 | 11.5 | 32.2 µM | 0.367 | 10.3 µM | 0.0838 | 13.7 | 1.77 | 19.6 µM | 1.75 | 24.2 µM | 0.487 | 31.1 | 0.436 | 15.8 µM
20 | C=C1c2ccccc2N(S(=O)(=O)c2ccc(C)cc2)C12CCCCC2 | – | > 100 µM | – | > 100 µM | – | > 100 | – | 58.5 µM | – | > 100 µM | – | > 100 | – | > 100 µM | – | > 100 µM | – | > 100 | – | > 100 µM
21 | COc1ccc2nc3cc(Cl)ccc3c(Nc3ccc(O)c(CN4CCCC4)c3)c2c1 | 1.83 | 3.5 µM | 1.99 | 4.06 µM | 1.67 | 3.16 | 3.92 | 16 µM | 1.32 | 3.44 µM | 1.67 | 3.79 | 2.89 | 7.62 µM | 3.79 | > 100 µM | 1.99 | 3.77 | 2.29 | 4.75 µM
22 | C#CCn1cc(C=C2C(=O)NC(=S)NC2=O)c2cc(Cl)ccc21 | 2.17 | 5.04 µM | 3.63 | 16.6 µM | 1.75 | 3.39 | 1.92 | 5.26 µM | 2.21 | 4.68 µM | 2.12 | 5.45 | 1.96 | 4.12 µM | 2.12 | 5.41 µM | 2.41 | 5.91 | 2.36 | 5.95 µM
23 | NC(=O)c1ncn(C2OC(CO)C(O)C2O)c1NC(=S)NC(=O)c1ccccc1 (configuration not stated) | – | > 100 µM | – | > 100 µM | – | > 100 | – | > 100 µM | – | > 100 µM | – | > 100 | – | > 100 µM | – | > 100 µM | – | > 100 | – | > 100 µM
24 | COc1cccc(C2CC(=O)Nc3cc4c(cc32)CCC4)c1OC (configuration not stated) | 4.84 | 27.9 µM | 0.859 | > 33.8 µM | 7.56 | 28.1 | 0.758 | 7.83 µM | 3.26 | 12.6 µM | 3.67 | 18.4 | 7.67 | > 80.3 µM | 5.34 | 27.5 µM | 4.12 | 17.3 | 12.4 | > 100 µM
